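Cells were grown in 96-well plates and exposed to each compound for 48 hours at five concentrations; endpoints were interpolated linearly between bracketing concentrations, or set to the highest concentration if not reached. Here, GI50 denotes the concentration required for 50% inhibition of growth. The concentration for full growth arrest is given as TGI.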
Assays:
Assay in all cases: NCI-60 cell line screen, 48 h
786-0 renal = test system: 786-0 renal
A549 NSCLC = test system: A549 NSCLC
ACHN renal = test system: ACHN renal
CAKI-1 renal = test system: CAKI-1 renal
COLO 205 colon = test system: COLO 205 colon
DLD-1 colon = test system: DLD-1 colon
DMS 114 small cell lung = test system: DMS 114 small cell lung
DMS 273 small cell lung = test system: DMS 273 small cell lung
EKVX NSCLC = test system: EKVX NSCLC
HCC-2998 colon = test system: HCC-2998 colon
HCT-116 colon = test system: HCT-116 colon
HCT-15 colon = test system: HCT-15 colon
HOP-18 NSCLC = test system: HOP-18 NSCLC
HOP-62 NSCLC = test system: HOP-62 NSCLC
HOP-92 NSCLC = test system: HOP-92 NSCLC
HT29 colon = test system: HT29 colon
IGROV1 ovarian = test system: IGROV1 ovarian
K-562 leukemia = test system: K-562 leukemia
KM12 colon = test system: KM12 colon
KM20L2 colon = test system: KM20L2 colon
LOX IMVI melanoma = test system: LOX IMVI melanoma
LXFL 529 NSCLC = test system: LXFL 529 NSCLC
M14 melanoma = test system: M14 melanoma
M19-MEL melanoma = test system: M19-MEL melanoma
MALME-3M melanoma = test system: MALME-3M melanoma
MOLT-4 leukemia = test system: MOLT-4 leukemia
NCI-H23 lung = test system: NCI-H23 lung
NCI-H460 lung = test system: NCI-H460 lung
NCI-H522 lung = test system: NCI-H522 lung
OVCAR-3 ovarian = test system: OVCAR-3 ovarian
OVCAR-4 ovarian = test system: OVCAR-4 ovarian
OVCAR-5 ovarian = test system: OVCAR-5 ovarian
OVCAR-8 ovarian = test system: OVCAR-8 ovarian
RPMI-8226 leukemia = test system: RPMI-8226 leukemia
RXF 393 renal = test system: RXF 393 renal
RXF-631 renal = test system: RXF-631 renal
SF-268 CNS = test system: SF-268 CNS
SF-295 CNS = test system: SF-295 CNS
SF-539 CNS = test system: SF-539 CNS
SK-MEL-2 melanoma = test system: SK-MEL-2 melanoma
SK-MEL-28 melanoma = test system: SK-MEL-28 melanoma
SK-MEL-5 melanoma = test system: SK-MEL-5 melanoma
SK-OV-3 ovarian = test system: SK-OV-3 ovarian
SN12C renal = test system: SN12C renal
SNB-19 CNS = test system: SNB-19 CNS
SNB-75 CNS = test system: SNB-75 CNS
SNB-78 CNS = test system: SNB-78 CNS
SW-620 colon = test system: SW-620 colon
TK-10 renal = test system: TK-10 renal
U251 CNS = test system: U251 CNS
UACC-257 melanoma = test system: UACC-257 melanoma
UACC-62 melanoma = test system: UACC-62 melanoma
UO-31 renal = test system: UO-31 renal
XF 498 CNS = test system: XF 498 CNS

SMILES: CCC[CH2][Sn]1([CH2]CCC)[O]C(=O)CN=Cc2ccccc2[O]1
- GI50 (786-0 renal): 517 nM
- TGI (786-0 renal): 1730 nM
- GI50 (A549 NSCLC): 1810 nM
- TGI (A549 NSCLC): 3550 nM
- GI50 (ACHN renal): 323 nM
- TGI (ACHN renal): 1100 nM
- GI50 (CAKI-1 renal): 182 nM
- TGI (CAKI-1 renal): 631 nM
- GI50 (COLO 205 colon): 298 nM
- TGI (COLO 205 colon): 1270 nM
- GI50 (DLD-1 colon): 568 nM
- TGI (DLD-1 colon): > 100000 nM
- GI50 (DMS 114 small cell lung): 134 nM
- TGI (DMS 114 small cell lung): 295 nM
- GI50 (DMS 273 small cell lung): 864 nM
- TGI (DMS 273 small cell lung): 2120 nM
- GI50 (EKVX NSCLC): 477 nM
- TGI (EKVX NSCLC): 1810 nM
- GI50 (HCC-2998 colon): 525 nM
- TGI (HCC-2998 colon): 1810 nM
- GI50 (HCT-116 colon): 710 nM
- TGI (HCT-116 colon): 2090 nM
- GI50 (HCT-15 colon): 358 nM
- TGI (HCT-15 colon): 1560 nM
- GI50 (HOP-18 NSCLC): 337 nM
- TGI (HOP-18 NSCLC): 1360 nM
- GI50 (HOP-62 NSCLC): 4010 nM
- TGI (HOP-62 NSCLC): > 100000 nM
- GI50 (HOP-92 NSCLC): 182 nM
- TGI (HOP-92 NSCLC): 519 nM
- GI50 (HT29 colon): 1080 nM
- TGI (HT29 colon): 2340 nM
- GI50 (IGROV1 ovarian): 2270 nM
- TGI (IGROV1 ovarian): > 100000 nM
- GI50 (K-562 leukemia): 192 nM
- TGI (K-562 leukemia): 1270 nM
- GI50 (KM12 colon): 695 nM
- TGI (KM12 colon): 2180 nM
- GI50 (KM20L2 colon): 1020 nM
- TGI (KM20L2 colon): 2260 nM
- GI50 (LOX IMVI melanoma): 205 nM
- TGI (LOX IMVI melanoma): 527 nM
- GI50 (LXFL 529 NSCLC): 102 nM
- TGI (LXFL 529 NSCLC): 236 nM
- GI50 (M14 melanoma): 368 nM
- TGI (M14 melanoma): 1370 nM
- GI50 (M19-MEL melanoma): 249 nM
- TGI (M19-MEL melanoma): 1150 nM
- GI50 (MALME-3M melanoma): 141 nM
- TGI (MALME-3M melanoma): 469 nM
- GI50 (MOLT-4 leukemia): 212 nM
- TGI (MOLT-4 leukemia): 750 nM
- GI50 (NCI-H23 lung): 136 nM
- TGI (NCI-H23 lung): 333 nM
- GI50 (NCI-H460 lung): 1280 nM
- TGI (NCI-H460 lung): 2600 nM
- GI50 (NCI-H522 lung): 34.9 nM
- TGI (NCI-H522 lung): 173 nM
- GI50 (OVCAR-3 ovarian): 545 nM
- TGI (OVCAR-3 ovarian): 1820 nM
- GI50 (OVCAR-4 ovarian): 881 nM
- TGI (OVCAR-4 ovarian): 2320 nM
- GI50 (OVCAR-5 ovarian): 1630 nM
- TGI (OVCAR-5 ovarian): 2980 nM
- GI50 (OVCAR-8 ovarian): 346 nM
- TGI (OVCAR-8 ovarian): 1390 nM
- GI50 (RPMI-8226 leukemia): 187 nM
- TGI (RPMI-8226 leukemia): 607 nM
- GI50 (RXF 393 renal): 144 nM
- TGI (RXF 393 renal): 306 nM
- GI50 (RXF-631 renal): 182 nM
- TGI (RXF-631 renal): 324 nM
- GI50 (SF-268 CNS): 286 nM
- TGI (SF-268 CNS): 859 nM
- GI50 (SF-295 CNS): 1140 nM
- TGI (SF-295 CNS): 2370 nM
- GI50 (SF-539 CNS): 1300 nM
- TGI (SF-539 CNS): > 100000 nM
- GI50 (SK-MEL-2 melanoma): 220 nM
- TGI (SK-MEL-2 melanoma): 555 nM
- GI50 (SK-MEL-28 melanoma): 343 nM
- TGI (SK-MEL-28 melanoma): 1100 nM
- GI50 (SK-MEL-5 melanoma): 1490 nM
- TGI (SK-MEL-5 melanoma): > 100000 nM
- GI50 (SK-OV-3 ovarian): 922 nM
- TGI (SK-OV-3 ovarian): 2180 nM
- GI50 (SN12C renal): 292 nM
- TGI (SN12C renal): 1130 nM
- GI50 (SNB-19 CNS): 222 nM
- TGI (SNB-19 CNS): 556 nM
- GI50 (SNB-75 CNS): 282 nM
- TGI (SNB-75 CNS): 849 nM
- GI50 (SNB-78 CNS): 232 nM
- TGI (SNB-78 CNS): 1340 nM
- GI50 (SW-620 colon): 175 nM
- TGI (SW-620 colon): 434 nM
- GI50 (TK-10 renal): 292 nM
- TGI (TK-10 renal): 729 nM
- GI50 (U251 CNS): 305 nM
- TGI (U251 CNS): 1090 nM
- GI50 (UACC-257 melanoma): 164 nM
- TGI (UACC-257 melanoma): 419 nM
- GI50 (UACC-62 melanoma): 197 nM
- TGI (UACC-62 melanoma): 460 nM
- GI50 (UO-31 renal): 512 nM
- TGI (UO-31 renal): 1770 nM
- GI50 (XF 498 CNS): 137 nM
- TGI (XF 498 CNS): 282 nM
